The target of one data set is BCL-XL (Homo sapiens (Human), UniProt Q07817). Nature of the data set: Protein-protein interaction assay BCL-XL/Bad BH3 peptide (BCL-XL assay, TR-FRET). It is filed as binding. The following applies: read-out: BCL-XL Assay IC50 (median). In a few lines:
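Human BCL-XL (aa 1-212, C-terminal His6, E. coli) at 1 nM end concentration, preincubated 10 min at 22 °C with compound (11 concentrations, 0.1 nM–20 μM, duplicates), then biotinylated Bad BH3 peptide (1 nM) added with anti-His-Eu cryptate/streptavidin-XL665. Incubation 1 h at 22 °C then overnight at 4 °C; TR-FRET 665/620 ratio, IC50 from 4-parameter fit.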
For orientation: Time-resolved FRET reads energy transfer from a long-lived donor to a nearby acceptor.

In data set [1] the test system is SUDHL5 cells. Nature of the data set: Induction of cytotoxicity in SUDHL5 cells (Assay 6). It is filed as cell-based. The following applies: 5 h, CellTiter-Glo, read-out: Cytotox SUDHL5 IC50 (median). In a few lines:
(§1)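 SUDHL5 and SUDHL10 cells plated and held overnight at 37° C, then incubated 5 h at 37° C with compound. Viability measured by CellTiter-Glo luminescence after 15 min shaking at room temperature. Cell-free medium wells served as control.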

The next data set concerns SUDHL10 cells. Nature of the data set: Induction of cytotoxicity in SUDHL10 cells (Assay 6). It is filed as cell-based. The following applies: 5 h, CellTiter-Glo, read-out: Cytotox SUDHL10 IC50 (median). The procedure, abridged:
as §1

In data set [2] the test system is SUDHL5 cells. Nature of the data set: Antiproliferation assay SUDHL5 (Assay 7). Type of data set: cell-based. The settings on record: 72 h, CellTiter-Glo, read-out: Antiproli SUDHL5 IC50 (median). The procedure, abridged: (§2)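 Cells are plated alongside a time-zero reference plate and held overnight at 37 °C. Treated plates are incubated 72 h, then ATP-based luminescence (CellTiter-Glo) is read. IC50 uses day 0 as baseline and DMSO as untreated control.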
In general terms: Cellular ATP, detected with luciferase, serves as a proxy for viable cell number.

The subject of the next data set is HMC-1-8 cells. Kind of data set: Antiproliferation assay HMC-1-8 (Assay 7). Type of data set: cell-based. In a few lines: as §2
[3] abbreviates: 72 h, CellTiter-Glo, read-out: Antiproli HMC-1-8 IC50 median.
Setting [4] is: read-out: Antiproli HMC-1-8 IC50 median; 72 h, CellTiter-Glo.

pIC50: −log10 of the molar value. Where a name gives a salt, the structure may show the parent alone. Read-outs that look alike come from different tables or passages of the source. Bounds are passed on as bounds.

BCL-XL, sequence (Q07817 1-212): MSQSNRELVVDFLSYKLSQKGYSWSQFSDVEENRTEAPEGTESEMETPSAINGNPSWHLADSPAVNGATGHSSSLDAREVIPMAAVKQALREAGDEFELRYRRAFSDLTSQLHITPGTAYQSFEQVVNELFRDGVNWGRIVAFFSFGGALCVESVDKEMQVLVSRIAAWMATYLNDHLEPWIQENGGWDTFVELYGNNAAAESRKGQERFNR

One may read the pIC50 as the IC50 on a negative log10 scale, so that one unit is a factor of ten. Consider `CCc1c2c(nn1C)C(CCC1CCOCC1)OCCCCn1c(C(=O)O)c(CCCOc3cccc4cc(F)ccc34)c3ccc(Cl)c-2c31` (racemic) [Example 60, (rac)-4-chloro-3-ethyl-7-{3-[(6-fluoronaphthalen-1-yl)oxy]propyl}-2-methyl-(15-rac)-[2-(oxan-4-yl)ethyl]-2,10,11,12,13,15-hexahydropyrazolo[4′,3′:9,10][1,6]oxazacycloundecino[8,7,6-hi]indole-8-carboxylic Acid], for which the pIC50 was 4.81 at BCL-XL; 7.11 in the data set with SUDHL5 cells [1]; 7.06 in the data set on SUDHL10 cells; 7.19 in the data set on SUDHL5 cells [2] (Homo sapiens, SU-DHL-5, 72 h); 6.02 in the data set with HMC-1-8 cells (setting [3]).
Regarding `CCc1c2c(nn1C)C(Cc1ccccc1)OCCCCn1c(C(=O)O)c(CCCOc3cccc4cc(F)ccc34)c3ccc(Cl)c-2c31` (racemic) [Example 92, (rac)-(rac-15)-benzyl-4-chloro-3-ethyl-7-{3-[(6-fluoro-1-naphthyl)oxy]propyl}-2-methyl-2,10,11,12,13,15-hexahydropyrazolo[4′,3′:9,10][1,6]oxazacycloundecino[8,7,6-hi]indole-8-carboxylic Acid], the pIC50 was 4.88 at BCL-XL; 5.92 in the data set on SUDHL5 cells [1] (Homo sapiens, SU-DHL-5, 5 h); 5.85 with SUDHL10 cells (Homo sapiens, SU-DHL10, 5 h); 5.92 in the data set with SUDHL5 cells [2] (Homo sapiens, SU-DHL-5, 72 h); 5.15 in the data set on HMC-1-8 cells (setting [3]).
`Cc1c2c(nn1C)C(CCN1CCOCC1)OCCCCn1c(C(=O)O)c(CCCOc3cccc4cc(F)ccc34)c3ccc(Cl)c-2c31` (racemic) [Example 16, (rac)-4-chloro-7-{3-[(6-fluoronaphthalen-1-yl)oxy]propyl}-2,3-dimethyl-15-[2-(morpholin-4-yl)ethyl]-2,10,11,12,13,15-hexahydropyrazolo[4′,3′:9,10][1,6]oxazacycloundecino[8,7,6-hi]indole-8-carboxylic Acid]: the pIC50 on BCL-XL is < 4.70; in the data set with SUDHL5 cells [1] (Homo sapiens, SU-DHL-5, 5 h), 7.72; in the data set on SUDHL10 cells (Homo sapiens, SU-DHL10, 5 h), 7.66; in the data set with SUDHL5 cells [2] (Homo sapiens, SU-DHL-5, 72 h), 7.72; in the data set on HMC-1-8 cells (setting [3]) it was 6.49.
Consider `CCc1c2c(nn1C)C(CC(C)(C)O)OCCCCn1c(C(=O)O)c(CCCOc3cccc4cc(F)ccc34)c3ccc(Cl)c-2c31` (single isomer, unassigned; enantiomer 21) [Example 54, (−)-4-chloro-3-ethyl-7-{3-[(6-fluoronaphthalen-1-yl)oxy]propyl}-15-(2-hydroxy-2-methylpropyl)-2-methyl-2,10,11,12,13,15-hexahydropyrazolo[4′,3′:9,10][1,6]oxazacycloundecino[8,7,6-hi]indole-8-carboxylic Acid—N-ethylethanamine Salt (Enantiomer 21], for which the pIC50 at BCL-XL is 4.84; in the data set with SUDHL5 cells [1], 5.03; with SUDHL10 cells it was 4.77; with SUDHL5 cells [2] it was 4.89; in the data set on HMC-1-8 cells (setting [4]), 4.69.
For the compound `CCc1c2c(nn1C)C(CC(C)(C)O)OCCCCn1c(C(=O)O)c(CCCOc3cccc4cc(F)ccc34)c3ccc(Cl)c-2c31` (single isomer, unassigned; enantiomer 1) [Example 53, (+)-4-chloro-3-ethyl-7-{3-[(6-fluoronaphthalen-1-yl)oxy]propyl}-15-(2-hydroxy-2-methylpropyl)-2-methyl-2,10,11,12,13,15-hexahydropyrazolo[4′,3′:9,10][1,6]oxazacycloundecino[8,7,6-hi]indole-8-carboxylic Acid—N-ethylethanamine Salt (Enantiomer 1)], the pIC50 at BCL-XL is 4.96; with SUDHL5 cells [1], 7.02; in the data set on SUDHL10 cells, 6.72; with SUDHL5 cells [2] it was 7.00; in the data set on HMC-1-8 cells (setting [4]), 6.01.
For `CCc1c2c(nn1C)C(CCN1CCOCC1)OCCCCn1c(C(=O)O)c(CCCOc3cccc4cc(F)ccc34)c3ccc(Cl)c-2c31` (racemic) [Example 22, (rac)-4-chloro-3-ethyl-7-{3-[(6-fluoronaphthalen-1-yl)oxy]propyl}-2-methyl-15-[2-(morpholin-4-yl)ethyl]-2,10,11,12,13,15-hexahydropyrazolo[4′,3′:9,10][1,6]oxazacycloundecino[8,7,6-hi]indole-8-carboxylic Acid], the pIC50 was < 4.70 at BCL-XL; 7.96 in the data set with SUDHL5 cells [1] (Homo sapiens, SU-DHL-5, 5 h); 7.55 in the data set on SUDHL10 cells (Homo sapiens, SU-DHL10, 5 h); 7.89 in the data set with SUDHL5 cells [2] (Homo sapiens, SU-DHL-5, 72 h); 6.55 with HMC-1-8 cells (setting [3]).
Taken in the same sequence, the figures for `CCC1OCCCCn2c(C(=O)O)c(CCCOc3cccc4ccccc34)c3ccc(Cl)c(c32)-c2c1nn(C)c2C` (racemic) [Example 25, (rac)-4-chloro-15-ethyl-2,3-dimethyl-7-{3-[(naphthalen-1-yl)oxy]propyl}-2,10,11,12,13,15-hexahydropyrazolo[4′,3′:9,10][1,6]oxazacycloundecino[8,7,6-hi]indole-8-carboxylic Acid] were < 4.70, 5.55, 5.06, 5.64 and 4.89.
On to `CCc1c2c(nn1C)C(CCN1CCOCC1)OCCCCn1c(C(=O)O)c(CCCOc3cccc4ccccc34)c3ccc(F)c-2c31` (racemic) [Example 10, (rac)-3-ethyl-4-fluoro-2-methyl-15-[2-(morpholin-4-yl)ethyl]-7-[3-(naphthalen-1-yloxy)propyl]-2,10,11,12,13,15-hexahydropyrazolo[4′,3′:9,10][1,6]oxazacycloundecino[8,7,6-hi]indole-8-carboxylic Acid], for which the pIC50 at BCL-XL was < 4.70; with SUDHL5 cells [1] (Homo sapiens, SU-DHL-5, 5 h), 6.85; in the data set on SUDHL10 cells (Homo sapiens, SU-DHL10, 5 h) it was 6.52; in the data set with SUDHL5 cells [2] (Homo sapiens, SU-DHL-5, 72 h), 6.80; in the data set with HMC-1-8 cells (setting [3]), 5.83.
The corresponding values for `CCc1c2c(nn1C)C(CCCN1CCOCC1)OCCCCn1c(C(=O)O)c(CCCOc3cccc4cc(F)ccc34)c3ccc(Cl)c-2c31` (racemic) [Example 65, (rac)-4-chloro-3-ethyl-7-{3-[(6-fluoronaphthalen-1-yl)oxy]propyl}-2-methyl-(15-rac)-[3-(morpholin-4-yl)propyl]-2,10,11,12,13,15-hexahydropyrazolo[4′,3′:9,10][1,6]oxazacycloundecino[8,7,6-hi]indole-8-carboxylic Acid] are < 4.70, 7.11, 7.00, 6.31 and 6.40.
As to `CCc1c2c(nn1C)C(CCN1CCC(F)(F)C1)OCCCCn1c(C(=O)O)c(CCCOc3cccc4cc(F)ccc34)c3ccc(Cl)c-2c31` (racemic) [Example 55, (rac)-4-chloro-(15-rac)-[2-(3,3-difluoropyrrolidin-1-yl)ethyl]-3-ethyl-7-{3-[(6-fluoronaphthalen-1-yl)oxy]propyl}-2-methyl-2,10,11,12,13,15-hexahydropyrazolo[4′,3′:9,10][1,6]oxazacycloundecino[8,7,6-hi]indole-8-carboxylic acid—2-hydroxypropane-1,2,3-tricarboxylic Acid Salt], the pIC50 on BCL-XL is < 4.70; in the data set on SUDHL5 cells [1] (Homo sapiens, SU-DHL-5, 5 h) it was 7.39; in the data set with SUDHL10 cells (Homo sapiens, SU-DHL10, 5 h), 7.17; in the data set on SUDHL5 cells [2] (Homo sapiens, SU-DHL-5, 72 h), 7.17; in the data set on HMC-1-8 cells (setting [3]), 6.76.
Turning to `Cc1c2c(nn1C)C(CCN1CCOCC1)OCCCCn1c(C(=O)O)c(CCCOc3cccc4cc(F)ccc34)c3ccc(F)c-2c31` (single isomer, unassigned; enantiomer 2) [Example 21, 4-fluoro-7-{3-[(6-fluoronaphthalen-1-yl)oxy]propyl}-2,3-dimethyl-15-[2-(morpholin-4-yl)ethyl]-2,10,11,12,13,15-hexahydropyrazolo[4′,3′:9,10][1,6]oxazacycloundecino[8,7,6-hi]indole-8-carboxylic Acid (Enantiomer 2)], the pIC50 on BCL-XL was < 4.70; in the data set on SUDHL5 cells [1] (Homo sapiens, SU-DHL-5, 5 h) it was 4.92; in the data set with SUDHL10 cells (Homo sapiens, SU-DHL10, 5 h), 4.85; in the data set with SUDHL5 cells [2] (Homo sapiens, SU-DHL-5, 72 h), 5.47; with HMC-1-8 cells (setting [3]), 4.88.
Taken in the same sequence, the figures for `CCc1c2c(nn1C)C(CCOC)OCCCCn1c(C(=O)O)c(CCCOc3cccc4cc(F)ccc34)c3ccc(Cl)c-2c31` (racemic) [Example 41, (rac)-4-chloro-3-ethyl-7-{3-[(6-fluoronaphthalen-1-yl)oxy]propyl}-(15-rac)-(2-methoxyethyl)-2-methyl-2,10,11,12,13,15-hexahydropyrazolo[4′,3′:9,10][1,6]oxazacycloundecino[8,7,6-hi]indole-8-carboxylic Acid] were 4.82, 6.77, 6.80, 6.80 and 5.88.
The corresponding values for `Cc1c2c(nn1C)C(CCO)OCCCCn1c(C(=O)O)c(CCCOc3cccc4ccccc34)c3ccc(Cl)c-2c31` (racemic) [Example 26, (rac)-4-chloro-15-(2-hydroxyethyl)-2,3-dimethyl-7-{3-[(naphthalen-1-yl)oxy]propyl}-2,10,11,12,13,15-hexahydropyrazolo[4′,3′:9,10][1,6]oxazacycloundecino[8,7,6-hi]indole-8-carboxylic Acid] are < 4.70, 6.40, 6.06, 6.39 and 5.17.
